This is an account of results in patent US7745390B2, “Antimicrobial peptides” (priority 2005, dated 2010).

Square brackets hold non-standard residues; d marks the D form. Ends that are not written are not given here. Peptide text beside a SMILES is read from it.

Test [1] has as its system B. cereus. The format is cell-based. Particulars: pH 7.2. Put shortly: (§1)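 First, peptides in 10 mM phosphate pH 7.2 with 0.03% LB meet bacteria (~5×10^6 CFU/ml). Second, incubation runs 3 h at 37 °C. Third, LB is added and plates grow overnight before OD600 reading.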
Test [2] relates to E. coli DH5a. The format is cell-based. Particulars: DH5a, pH 7.2. An outline of the steps:
as §1

Test [3] concerns Salmonella. It counts as cell-based, S. typhimurium. Conditions: pH 7.2. Put shortly: as §1
For test [4], the system named is bacteria. The test is described as follows: Activity in DMEM and RPMI media (lysis of bacteria). Particulars: for Active in DMEM: Table 2, tested in DMEM and RPMI; for antimicrobial / antibacterial activity: medium not stated. The format is cell-based. Further details: key to Active in DMEM: YES: Active in DMEM; a blank means no activity. The protocol: (§2) The CFU assay is the “gold standard” for evaluating antibiotics. Briefly, bacteria are grown overnight in rich medium, such as LB, and then diluted and grown in log phase for 2-4 hours. Cultures are set up as above, with the initial culture media being 10 mM phosphate buffer/0.03% LB; DMEM or RPMI; or DMEM or RPMI plus 10% serum (fetal calf, human, or mouse). After various periods of time, but generally 3 hours or less, aliquots are removed, diluted in LB at various dilutions, and plated on LB agar plates. Plates are incubated overnight at 37° C. and counted on an automatic colony counter.
In the column “Active in DMEM”, a blank means no activity. MAP stands for multiple antigenic peptide, where a number of identical peptide chains are synthesized and joined to a common core (like a dendrimer).
The peptides listed in Table 2 were tested in DMEM and RPMI, media that approximate blood and tissue conditions in vivo and those that were active under these conditions are listed in the last column (active in DMEM). […] No peptides that were all L-isomer peptides lysed bacteria in DMEM supplemented with serum.
The hydrophobic moment is a measure of amphipathicity and indicates how well the hydrophobic residues fall on one side of the helix while the hydrophilic residues fall on the opposite side is shown in column 7. This was determined using the Membrane Explorer Program (http://blanco.biomol.uci.edu/mpex/). A high number indicates a high hydrophobic moment. Column 8 again (like Table 2) indicates which of these peptides is active in DMEM.

The test system of test [5] is bacteria. Briefly: Activity in serum containing media (10% FCS in DMEM or RPMI). The format is cell-based. Particulars: 10% FCS in DMEM or RPMI. Here is the method: as §2
Tests were conducted in low salt concentrations so that active peptide candidates could be identified more readily. It is important for in vivo applications that the present antimicrobial peptides be active in physiological salt concentrations (150 mM) as well as in the presence of other tissue components, such as blood plasma (serum). Serum may contain proteases that destroy peptides; the use of D-amino acids can improve protease resistance. See G12.21. […] Also active were G11.6, G11.26, G11.29, G11.30, G11.34, G11.35, G12.11, G12.19, G12.20 and G12.21. […]

On to `CSCC[C@@H]1NC(=O)[C@H](Cc2ccccc2)NC(=O)[C@H](CCCCN)NC(=O)[C@H](CCCCN)NC(=O)[C@H](CO)NC(=O)[C@H](C(C)C)NC(=O)[C@H](CCCCN)NC(=O)[C@H](CCCCN)NC(=O)[C@H](CC(N)=O)NC(=O)[C@H](CCCCN)NC(=O)[C@H](CCCCN)NC(=O)[C@H](CCSC)NC(=O)[C@H](Cc2ccccc2)NC(=O)[C@H](CCCCN)NC(=O)[C@H](CCCCN)NC(=O)[C@H](CO)NC(=O)[C@H](C(C)C)NC(=O)[C@H](CCCCN)NC(=O)[C@H](CCCCN)NC(=O)[C@H](CO)NC(=O)CNC(=O)[C@H](CCCCN)NC(=O)[C@H](CCCCN)NC1=O` [G11.32 CYC], for which, in test [1], the “B. cereus MIC” value was 0.35 µM and the half-inhibitory concentration (IC50) is 210 nM. In test [2], the “E. coli DH5a MIC” value turned out to be 0.35 µM and the IC50 is 200 nM. In test [3], the 50% inhibitory concentration (IC50) amounted to 210 nM and the “Salmonella MIC” value is 0.35 µM. For the same molecule, the “Active in DMEM” value in test [4] is “YES”.
As for `CSCC[C@H](NC(=O)[C@H](Cc1ccccc1)NC(=O)[C@@H](CCCNC(=N)N)NC(=O)[C@@H](CCCNC(=N)N)NC(=O)[C@H](CO)NC(=O)[C@@H](NC(=O)[C@H](CC(=O)O)NC(=O)[C@H](CCCNC(=N)N)NC(=O)[C@H](Cc1c[nH]c2ccccc12)NC(=O)[C@H](CCCNC(=N)N)NC(=O)[C@H](CO)NC(=O)[C@H](CCCNC(=N)N)NC(=O)CNC(=O)[C@@H](NC(=O)[C@H](CCCNC(=N)N)NC(=O)[C@H](CO)NC(=O)[C@@H](NC(=O)[C@H](CCCNC(=N)N)NC(=O)[C@@H](NC(=O)[C@@H](C)NC(=O)[C@@H](C)NC(=O)[C@H](CCCNC(=N)N)NC(=O)[C@H](CO)NC(=O)[C@@H](NC(=O)[C@H](CO)NC(=O)[C@H](CCCNC(=N)N)NC(=O)[C@@H](N)CCC(N)=O)C(C)C)[C@@H](C)O)C(C)C)[C@@H](C)O)C(C)C)C(=O)N[C@@H](CCCNC(=N)N)C(=O)N[C@@H](CCCNC(=N)N)C(=O)O` [Peptide G8.8, QRSVSRaaTRVSRTGRSRWRDVSrrFMRR] (H-QRSVSR[dA][dA]TRVSRTGRSRWRDVS[dR][dR]FMRR-OH; N-terminus and C-terminus assumed), in test [1], the “B. cereus MIC” value is 2.5 µM and the IC50 is 1700 nM. Moreover, in test [2], the “E. coli DH5a MIC” value is 0.35 µM and 210 nM corresponded to half-maximal inhibition (IC50). Also, in test [3], it took 420 nM to reach half-maximal inhibition (IC50) and the “Salmonella MIC” value is 0.7 µM. Besides, the “Active in DMEM” value in test [4] was “YES”. Besides, the “active in serum containing media” value in test [5] is “active”.
In the case of `CC(C)C[C@@H](NC(=O)[C@@H](CCCNC(=N)N)NC(=O)[C@@H](CCCNC(=N)N)NC(=O)[C@H]1CCCN1C(=O)[C@@H](CCCNC(=N)N)NC(=O)[C@@H](CCCNC(=N)N)NC(=O)[C@@H](CO)NC(=O)[C@@H](CCCNC(=N)N)NC(=O)[C@@H](Cc1ccc(O)cc1)NC(=O)[C@@H](CCCNC(=N)N)NC(=O)[C@@H](CCCNC(=N)N)NC(=O)[C@H]1CCCN1C(=O)[C@H]1CCCN1C(=O)[C@H]1CCCN1C(=O)[C@@H](CCCNC(=N)N)NC(=O)[C@@H](CO)NC(=O)[C@H](NC(=O)[C@@H](CCCNC(=N)N)NC(=O)[C@H](N)CCCNC(=N)N)C(C)C)C(=O)N[C@@H](C(=O)O)C(C)C` [Peptide G12.25, rrvsrppprryrsrrprrlv] (H-[dR][dR][dV][dS][dR][dP][dP][dP][dR][dR][dY][dR][dS][dR][dR][dP][dR][dR][dL][dV]-OH; N-terminus and C-terminus assumed), in test [1], the “B. cereus MIC” value is “<.078 µM” and the IC50 is less than 78 nM. Also, in test [2], the “E. coli DH5a MIC” value was 0.15 µM and the IC50 is less than 78 nM. In test [3], the midpoint of inhibition, the IC50, lay at 100 nM and the “Salmonella MIC” value stood at 1.25 µM. Moreover, in test [4], the “Active in DMEM” value was “YES” and the “antimicrobial / antibacterial activity” value is “has lost much of its antibacterial activity”.
For `CSCC[C@@H](NC(=O)[C@H]1CCCN1C(=O)[C@H]1CCCN1C(=O)[C@@H](CCCNC(=N)N)NC(=O)[C@@H](CO)NC(=O)[C@H](NC(=O)[C@@H](CCCNC(=N)N)NC(=O)[C@H](N)CCCNC(=N)N)C(C)C)C(=O)N[C@H](CCCNC(=N)N)C(=O)N[C@H](CCCNC(=N)N)C(=O)N[C@H](Cc1ccc(O)cc1)C(=O)N[C@H](CCCNC(=N)N)C(=O)N[C@H](CO)C(=O)N[C@H](CCCNC(=N)N)C(=O)N[C@H](CCCNC(=N)N)C(=O)N1CCC[C@@H]1C(=O)N[C@H](CCCNC(=N)N)C(=O)N[C@H](CCCNC(=N)N)C(=O)N[C@H](CC(C)C)C(=O)N[C@@H](C(=O)O)C(C)C` [Peptide G12.26, rrvsrppmrryrsrrprrlv] (H-[dR][dR][dV][dS][dR][dP][dP][dM][dR][dR][dY][dR][dS][dR][dR][dP][dR][dR][dL][dV]-OH; N-terminus and C-terminus assumed), in test [1], the “B. cereus MIC” value was found to be 0.35 µM and the IC50 was less than 78 nM. Further, in test [2], the “E. coli DH5a MIC” value is “<.078 µM” and the IC50 was less than 78 nM. In addition, in test [3], it took 100 nM to reach half-maximal inhibition (IC50) and the “Salmonella MIC” value was 0.3 µM. Further, in test [4], the “Active in DMEM” value is recorded as “YES” and the “antimicrobial / antibacterial activity” value was “loses some antibacterial activity compared to G12.21”.
As for `CSCC[C@@H](NC(=O)[C@H]1CCCN1C(=O)[C@@H](CCCCN)NC(=O)[C@@H](CCCCN)NC(=O)[C@@H](CO)NC(=O)[C@H](NC(=O)[C@@H](CCCCN)NC(=O)[C@H](N)CCCCN)C(C)C)C(=O)N[C@H](CCCCN)C(=O)N[C@H](CCCCN)C(=O)N[C@H](Cc1ccc(O)cc1)C(=O)N[C@H](CCCCN)C(=O)N[C@H](CO)C(=O)N[C@H](CCCCN)C(=O)N[C@H](CCCCN)C(=O)N1CCC[C@@H]1C(=O)N[C@H](CCCCN)C(=O)N[C@H](CCCCN)C(=O)N[C@H](CC(C)C)C(=O)N[C@@H](C(=O)O)C(C)C` [Peptide G12.28, kkvskkpmkkykskkpkklv] (H-[dK][dK][dV][dS][dK][dK][dP][dM][dK][dK][dY][dK][dS][dK][dK][dP][dK][dK][dL][dV]-OH; N-terminus and C-terminus assumed), in test [4], the “antimicrobial / antibacterial activity” value is “inactive peptide”.
Regarding “GRSRWRRVSRRFMRR [Peptide G14.11, GRSRWRRVSRRFMRR]”, in test [1], the “B. cereus MIC” value is 0.7 µM and half-maximal inhibition (IC50) required 450 nM. For the same molecule, in test [2], the “E. coli DH5a MIC” value worked out at 0.7 µM and the IC50 came out at 450 nM. In addition, in test [3], it took 440 nM to reach half-maximal inhibition (IC50) and the “Salmonella MIC” value amounted to 0.65 µM. For the same molecule, in test [4], the “Active in DMEM” value is listed as “YES”.
Consider “QRSVSRAATRVSRTGRSRWRRVSRRFMRR [Peptide G8.9]”, for which, in test [1], the “B. cereus MIC” value turned out to be 0.7 µM and the half-inhibitory concentration (IC50) is 450 nM. In test [2], the “E. coli DH5a MIC” value was 0.7 µM and the concentration for half-maximal inhibition (IC50) was 450 nM. In test [3], the midpoint of inhibition, the IC50, lay at 220 nM and the “Salmonella MIC” value amounted to 0.35 µM. For the same molecule, the “Active in DMEM” value in test [4] is “YES”.
For the molecule “QRSVSRPPTRVSRTGRSRWRDVSRRFMRR [Peptide G8.12]”, in test [1], the “B. cereus MIC” value was determined as 0.35 µM and the IC50 was determined as 210 nM. Besides, in test [2], the “E. coli DH5a MIC” value is 0.35 µM and half-maximal inhibition (IC50) was put at 210 nM. For the same molecule, in test [3], the midpoint of inhibition, the IC50, lay at 210 nM and the “Salmonella MIC” value was determined as 0.35 µM. The “Active in DMEM” value in test [4] is on record as “YES”.
As for “RRVSRRFMRRD-NH2 [G11.30 CYC, RRVSRRFMRRD]”, in test [1], the “B. cereus MIC” value is more than 10 µM and the IC50 came out at 7550 nM. Besides, in test [2], the “E. coli DH5a MIC” value was found to be 5.7 µM and the IC50 worked out at 3500 nM. Also, in test [3], the IC50 was 7700 nM and the “Salmonella MIC” value was more than 10 µM. For the same molecule, in test [5], the “active in serum containing media” value is given as “active”.
